Experimental data taken from paper PMC5433425 (PeerJ, 2017).

How the values were obtained:
[1] = system: E. coli AG100tet (AcrAB overexpressing); assay: MIC, broth microdilution; format: cell-based, Escherichia coli; conditions: E. coli AG100tet
E. coli AG100 = assay: EtBr efflux by real-time fluorometry; conditions: for EtBr fluorescence (Channel Cycling A.530/585hp): 80 µM, + glucose
Method: (§1) Control tubes with only cells and cells with and without 0.4% glucose were included. The fluorescence was measured in a Rotor-Gene 3000 and the data was acquired every 30 s for 30 min at 37 °C. The efflux activity was quantified by comparing the fluorescence data obtained under conditions that promote efflux (presence of glucose and absence of efflux inhibitor) with the data from the control in which the bacteria are under conditions of no efflux (presence of an inhibitor and no energy source).

E. coli AG100tet = assay: EtBr efflux by real-time fluorometry; conditions: 80 µM
Method: as §1

CCCOc1ccc(-c2cc(OCCN3CCNCC3)c3ccccc3n2)cc1 [PQQ4R, 4-(2-(piperazin-1-yl)ethoxy)-2-(4-propoxyphenyl) quinolone]
MIC [1]: >653.9 µM
inhibition of EtBr efflux (E. coli AG100; AG100, AG100A and AG100tet (Fig. 2), 80 μM (20 μM for AG100A), glucose, 37 °C): inhibited
EtBr fluorescence (Channel Cycling A.530/585hp) (E. coli AG100; cycle 1): 14.1835
EtBr fluorescence (Channel Cycling A.530/585hp) (E. coli AG100; cycle 2): 12.9442
EtBr fluorescence (Channel Cycling A.530/585hp) (E. coli AG100; cycle 3): 12.1458
EtBr fluorescence (Channel Cycling A.530/585hp) (E. coli AG100; cycle 9): 9.004
EtBr fluorescence (Channel Cycling A.530/585hp) (E. coli AG100; cycle 10): 8.5432
EtBr fluorescence (Channel Cycling A.530/585hp) (E. coli AG100; cycle 11): 8.357
EtBr fluorescence (Channel Cycling A.530/585hp) (E. coli AG100; cycle 12): 8.087
EtBr fluorescence (Channel Cycling A.530/585hp) (E. coli AG100; cycle 13): 7.737
EtBr fluorescence (Channel Cycling A.530/585hp) (E. coli AG100; cycle 14): 7.571
EtBr fluorescence (Channel Cycling A.530/585hp) (E. coli AG100; cycle 15): 7.486
EtBr fluorescence (Channel Cycling A.530/585hp) (E. coli AG100; cycle 16): 7.363
EtBr fluorescence (Channel Cycling A.530/585hp) (E. coli AG100; cycle 17): 7.106
EtBr fluorescence (Channel Cycling A.530/585hp) (E. coli AG100; cycle 18): 6.949
EtBr fluorescence (Channel Cycling A.530/585hp) (E. coli AG100; cycle 19): 6.811
EtBr fluorescence (Channel Cycling A.530/585hp) (E. coli AG100; cycle 20): 6.647
EtBr fluorescence (Channel Cycling A.530/585hp) (E. coli AG100; cycle 21): 6.6451
EtBr fluorescence (Channel Cycling A.530/585hp) (E. coli AG100; cycle 22): 6.375
EtBr fluorescence (Channel Cycling A.530/585hp) (E. coli AG100; cycle 23): 6.294
EtBr fluorescence (Channel Cycling A.530/585hp) (E. coli AG100; cycle 24): 6.27
EtBr fluorescence (Channel Cycling A.530/585hp) (E. coli AG100; cycle 25): 6.171
EtBr fluorescence (Channel Cycling A.530/585hp) (E. coli AG100; cycle 26): 6.0708
EtBr fluorescence (Channel Cycling A.530/585hp) (E. coli AG100; cycle 27): 5.906
EtBr fluorescence (Channel Cycling A.530/585hp) (E. coli AG100; cycle 28): 5.869
EtBr fluorescence (Channel Cycling A.530/585hp) (E. coli AG100; cycle 29): 5.816
EtBr fluorescence (Channel Cycling A.530/585hp) (E. coli AG100; cycle 30): 5.711
EtBr fluorescence (Channel Cycling A.530/585hp) (E. coli AG100; cycle 31): 5.67
EtBr fluorescence (Channel Cycling A.530/585hp) (E. coli AG100; cycle 32): 5.576
EtBr fluorescence (Channel Cycling A.530/585hp) (E. coli AG100; cycle 33): 5.469
EtBr fluorescence (Channel Cycling A.530/585hp) (E. coli AG100; cycle 34): 5.4
EtBr fluorescence (Channel Cycling A.530/585hp) (E. coli AG100; cycle 35): 5.309
EtBr fluorescence (Channel Cycling A.530/585hp) (E. coli AG100; cycle 36): 5.284
EtBr fluorescence (Channel Cycling A.530/585hp) (E. coli AG100; cycle 37): 5.241
EtBr fluorescence (Channel Cycling A.530/585hp) (E. coli AG100; cycle 38): 5.208
EtBr fluorescence (Channel Cycling A.530/585hp) (E. coli AG100; cycle 39): 5.097
EtBr fluorescence (Channel Cycling A.530/585hp) (E. coli AG100; cycle 40): 5.016
EtBr fluorescence (Channel Cycling A.530/585hp) (E. coli AG100; cycle 41): 5.035
EtBr fluorescence (Channel Cycling A.530/585hp) (E. coli AG100; cycle 42): 4.981
EtBr fluorescence (Channel Cycling A.530/585hp) (E. coli AG100; cycle 43): 4.838
EtBr fluorescence (Channel Cycling A.530/585hp) (E. coli AG100; cycle 44): 4.747
Fluorescence raw data, Channel Cycling A.530/585hp (E. coli AG100tet; cycle 1, + glucose): 3.509
Fluorescence raw data, Channel Cycling A.530/585hp (E. coli AG100tet; cycle 1, without glucose): 3.29
Fluorescence raw data, Channel Cycling A.530/585hp (E. coli AG100tet; cycle 2, + glucose): 3.253
Fluorescence raw data, Channel Cycling A.530/585hp (E. coli AG100tet; cycle 2, without glucose): 3.046
Fluorescence raw data, Channel Cycling A.530/585hp (E. coli AG100tet; cycle 3, + glucose): 3.181
Fluorescence raw data, Channel Cycling A.530/585hp (E. coli AG100tet; cycle 3, without glucose): 3.057
Fluorescence raw data, Channel Cycling A.530/585hp (E. coli AG100tet; cycle 4, without glucose): 3.005
Fluorescence raw data, Channel Cycling A.530/585hp (E. coli AG100tet; cycle 5, without glucose): 2.971
Fluorescence raw data, Channel Cycling A.530/585hp (E. coli AG100tet; cycle 6, without glucose): 3.106
Fluorescence raw data, Channel Cycling A.530/585hp (E. coli AG100tet; cycle 7, without glucose): 3.154
Fluorescence raw data, Channel Cycling A.530/585hp (E. coli AG100tet; cycle 8, without glucose): 3.202
Fluorescence raw data, Channel Cycling A.530/585hp (E. coli AG100tet; cycle 9, + glucose): 3.419
Fluorescence raw data, Channel Cycling A.530/585hp (E. coli AG100tet; cycle 9, without glucose): 3.159
Fluorescence raw data, Channel Cycling A.530/585hp (E. coli AG100tet; cycle 10, + glucose): 3.524
Fluorescence raw data, Channel Cycling A.530/585hp (E. coli AG100tet; cycle 10, without glucose): 3.043
Fluorescence raw data, Channel Cycling A.530/585hp (E. coli AG100tet; cycle 11, + glucose): 3.644
Fluorescence raw data, Channel Cycling A.530/585hp (E. coli AG100tet; cycle 11, without glucose): 3.142
Fluorescence raw data, Channel Cycling A.530/585hp (E. coli AG100tet; cycle 12, + glucose): 3.857
Fluorescence raw data, Channel Cycling A.530/585hp (E. coli AG100tet; cycle 12, without glucose): 3.158
Fluorescence raw data, Channel Cycling A.530/585hp (E. coli AG100tet; cycle 13, + glucose): 3.873
Fluorescence raw data, Channel Cycling A.530/585hp (E. coli AG100tet; cycle 13, without glucose): 3.143
Fluorescence raw data, Channel Cycling A.530/585hp (E. coli AG100tet; cycle 14, + glucose): 3.954
Fluorescence raw data, Channel Cycling A.530/585hp (E. coli AG100tet; cycle 14, without glucose): 3.212
Fluorescence raw data, Channel Cycling A.530/585hp (E. coli AG100tet; cycle 15, + glucose): 4.044
Fluorescence raw data, Channel Cycling A.530/585hp (E. coli AG100tet; cycle 15, without glucose): 3.129
Fluorescence raw data, Channel Cycling A.530/585hp (E. coli AG100tet; cycle 16, + glucose): 4.17
Fluorescence raw data, Channel Cycling A.530/585hp (E. coli AG100tet; cycle 16, without glucose): 3.186
Fluorescence raw data, Channel Cycling A.530/585hp (E. coli AG100tet; cycle 17, + glucose): 4.316
Fluorescence raw data, Channel Cycling A.530/585hp (E. coli AG100tet; cycle 17, without glucose): 3.1931
Fluorescence raw data, Channel Cycling A.530/585hp (E. coli AG100tet; cycle 18, + glucose): 4.457
Fluorescence raw data, Channel Cycling A.530/585hp (E. coli AG100tet; cycle 18, without glucose): 3.175
Fluorescence raw data, Channel Cycling A.530/585hp (E. coli AG100tet; cycle 19, + glucose): 4.5
Fluorescence raw data, Channel Cycling A.530/585hp (E. coli AG100tet; cycle 19, without glucose): 3.177
Fluorescence raw data, Channel Cycling A.530/585hp (E. coli AG100tet; cycle 20, + glucose): 4.55
Fluorescence raw data, Channel Cycling A.530/585hp (E. coli AG100tet; cycle 20, without glucose): 3.2463
